pIC50: −log10 of the molar value. Structures can show the parent of a compound that is named as a salt.
Experiments:
[1] = target: PRMT5/MEP50 complex (Homo sapiens (Human), UniProt O14744); assay: Biochemical assay: PRMT5/MEP50 methylation of histone H2A with 3H-SAM, filter plate scintillation; details: biochemical potency; read-out: PRTMT5/MEP50 IC50
Protocol: Biochemical Assay Protocol
Compounds were solubilized, and 3-fold diluted in 100% DMSO. […] Standard reactions were performed in a total volume of […] assay buffer, with histone H2A (5 μM final) as substrate. To this was added the PRMT5/MEP50 complex diluted to provide a final assay concentration of 5 nM and the compounds were allowed to preincubate for 15 to 20 minutes at room temperature. The reaction was initiated by adding S-[3H-methyl]-adenosyl-L-methionine (PerkinElmer) to final concentration of 1 μM. Following a 60 minutes incubation at 30° C., the reaction was stopped by adding 100 μL of 20% TCA. Each reaction was spotted onto filter plate (MultiScreen FB Filter Plate, Millipore), and washed 5 times with PBS buffer, Scintillation fluid was added to the filter plate and read in a scintillation counter. IC50 values were determined by fitting the data to the standard 4 parameters with Hill Slope using GraphPad Prism software.

[2] = test system: Symmetric Di-Methyl Arginine (sDMA) in Granta-519 cells; assay: Western blot for symmetric di-methyl arginine (sDMA) marks in Granta cells, 3 days treatment; assay type: cell-based; details: Homo sapiens, 3 days
Protocol: Cell Treatment and Western Blotting for Detecting Symmetric Di-Methyl Arginine (sDMA) and Histone H3R8 Dimethyl Symmetric (H3R8me2s) Marks
Initial compounds screening in A549 cells: Compounds were dissolved in DMSO to make 10 mM stock and further diluted to 0.1, and 1 mM. A549 cells were maintained in PRMI 1640 (Corning Cellgro, Catalog #: 10-040-CV) medium supplemented with 10% v/v FBS (GE Healthcare, Catalog #: SH30910.03). One day before experiment, 1.25×10^5 cells were seeded in 6 well plate in 3 mL medium and incubated overnight. The next day, medium was changed and 3 uL of compound solution was added (1:1,000 dilution, 0.1 and 1 uM final concentration; DMSO concentration: 0.1%), and incubated for 3 days. Cells incubated with DMSO was used as a vehicle control. Cells were washed once with PBS, trypsinized in 150 uL 0.25% Trypsin (Corning, Catalog #: 25-053-CI), neutralized with 1 mL complete medium, transferred to microcentrifuge tubes and collected. Cell pellet was then resuspended in 15 uL PBS, lysed in 4% SDS, and homogenized by passing through homogenizer column (Omega Biotek, Catalog #: HCR003). Total protein concentrations were determined by BCA assay (ThermoFisher Scientific, Catalog #: 23225). Lysates were mixed with 5× Laemmli buffer and boiled for 5 min. Forty ug of total protein was separated on SDS-PAGE gels (Bio-Rad, catalog #: 4568083, 4568043), transferred to PVDF membrane, blocked with 5% dry milk (Bio-Rad, Catalog #: 1706404) in TBS with 0.1% v/v Tween 20 (TBST) for 1 hour at room temperature (RT), and incubated with primary antibodies (sDMA: Cell signaling, Catalog #: 13222, 1:3,000; H3R8me2s: Epigentek, Catalog #: A-3706-100, 1:2,000; β-Actin: Abcam, Catalog #: ab8227, 1:10,000) in 5% dry milk in TBST at 4° C. for overnight. The next day, membranes were washed with TBST, 5×5 min, and incubated withhP conjugated seconded antibody (GE Healthcare; Catalog #: NA934-1ML; 1:5,000) for 2 hours at RT, followed by 5×5 min washes with TBST, and incubation with ECL substrates (Bio-Rad, Catalog #: 1705061, 1705062). Chemiluminescent signal was captured with FluoChem HD2 imager (Proteinsimple) and analyzed by ImageJ.
Cells incubated with DMSO was used as a vehicle control. Cells were harvested and subjected to western blot analysis as described above. SmD3me2s and H3R8me2s bands were quantified by ImageJ. Signals were normalized to β-Actin and DMSO control. IC50 values were calculated using Graphpad Prism.

[3] = Granta-519, 72 h, Granta cell line

Chain of PRMT5/MEP50 complex (O14744 whole entry): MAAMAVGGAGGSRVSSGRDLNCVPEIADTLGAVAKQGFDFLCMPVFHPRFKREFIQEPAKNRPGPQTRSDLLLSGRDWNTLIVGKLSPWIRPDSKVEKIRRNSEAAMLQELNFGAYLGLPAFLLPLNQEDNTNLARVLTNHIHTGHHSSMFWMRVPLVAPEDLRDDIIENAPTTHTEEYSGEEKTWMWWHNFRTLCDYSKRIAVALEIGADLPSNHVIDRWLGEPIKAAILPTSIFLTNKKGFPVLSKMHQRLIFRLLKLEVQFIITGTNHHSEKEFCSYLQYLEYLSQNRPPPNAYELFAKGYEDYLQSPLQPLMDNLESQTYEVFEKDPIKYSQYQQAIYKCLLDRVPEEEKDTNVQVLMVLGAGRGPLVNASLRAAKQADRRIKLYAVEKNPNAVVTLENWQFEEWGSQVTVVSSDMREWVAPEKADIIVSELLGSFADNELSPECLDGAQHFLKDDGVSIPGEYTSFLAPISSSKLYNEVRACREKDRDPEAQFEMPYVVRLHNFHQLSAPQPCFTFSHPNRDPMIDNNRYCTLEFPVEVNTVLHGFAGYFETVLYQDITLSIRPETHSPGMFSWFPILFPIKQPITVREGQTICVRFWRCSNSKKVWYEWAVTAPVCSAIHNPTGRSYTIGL
Chain of PRMT5/MEP50 complex (Q9BQA1 whole entry partner): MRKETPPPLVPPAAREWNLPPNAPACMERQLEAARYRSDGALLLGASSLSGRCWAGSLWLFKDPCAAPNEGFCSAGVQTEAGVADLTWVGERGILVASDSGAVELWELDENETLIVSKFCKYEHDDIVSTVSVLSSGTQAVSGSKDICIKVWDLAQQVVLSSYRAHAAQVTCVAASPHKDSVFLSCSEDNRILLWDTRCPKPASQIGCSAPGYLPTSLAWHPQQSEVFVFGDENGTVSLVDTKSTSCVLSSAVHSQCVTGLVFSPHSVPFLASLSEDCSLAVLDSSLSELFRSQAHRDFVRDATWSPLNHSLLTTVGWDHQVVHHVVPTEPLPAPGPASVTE

How did the pIC50 [1] turn out when CC(c1ccc(Cl)cc1)C1O[C@@H](n2ccc3c(N)ncnc32)[C@H](O)[C@@H]1O (stereo in doubt) [Example 6-C, (2R,3R,4S,5S)-2-(4-amino-7H-pyrrolo[2,3-d]pyrimidin-7-yl)-5-(1-(4-chlorophenyl)ethyl)tetrahydrofuran-3,4-diol] was run?
Its pIC50 is 8.16.

And the pIC50 [2, 3]?
The pIC50 was 7.03.

With Cc1cc([C@@](C)(O)[C@H]2O[C@@H](n3cnc4c(N)ncnc43)[C@H](O)[C@@H]2O)ccc1Cl [Example 2-C, (2R,3R,4S,5S)-2-(6-amino-9H-purin-9-yl)-5-((R)-1-(4-chloro-3-methylphenyl)-1-hydroxyethyl)tetrahydrofuran-3,4-diol] as the compound, how does the pIC50 [1] read?
The pIC50 was 7.87.

And the pIC50 [2, 3]?
The pIC50 was 7.89.

How did the pIC50 [1] turn out when C[C@@](O)(c1ccc(Cl)c(Cl)c1)[C@H]1O[C@@H](n2cc(F)c3c(N)ncnc32)[C@H](O)[C@@H]1O [Example 3-C, (2R,3R,4S,5S)-2-(4-amino-5-fluoro-7H-pyrrolo[2,3-d]pyrimidin-7-yl)-5-((R)-1-(3,4-dichlorophenyl)-1-hydroxyethyl)tetrahydrofuran-3,4-diol] was run?
The pIC50 was 9.05.

And the pIC50 [2, 3]?
The pIC50 was 8.42.

How did the pIC50 [2, 3] turn out when C[C@@H](c1ccc(Cl)cc1)[C@H]1O[C@@H](n2ccc3c(N)ncnc32)[C@H](O)[C@@H]1O [Example 5-C, (2R,3R,4S,5R)-2-(4-amino-7H-pyrrolo[2,3-d]pyrimidin-7-yl)-5-((S)-1-(4-chlorophenyl)ethyl)tetrahydrofuran-3,4-diolhydrochloride] was run?
Its pIC50 is 7.04.

With C[C@@](O)(c1ccc(Cl)c(F)c1)[C@H]1O[C@@H](n2cc(F)c3c(N)ncnc32)[C@H](O)[C@@H]1O [Example 15-C, (2R,3R,4S,5S)-2-(4-amino-5-fluoro-7H-pyrrolo[2,3-d]pyrimidin-7-yl)-5-((R)-1-(4-chloro-3-fluorophenyl)-1-hydroxyethyl)tetrahydrofuran-3,4-diol] as the compound, how does the pIC50 [1] read?
The pIC50 was 9.00.

What about the pIC50 [2, 3] of the same compound?
Its pIC50 is 8.72.

C[C@@](O)(c1ccc(Cl)s1)[C@H]1O[C@@H](n2ccc3c(N)ncnc32)[C@H](O)[C@@H]1O [Example 21-C, (2R,3R,4S,5S)-2-(4-amino-7H-pyrrolo[2,3-d]pyrimidin-7-yl)-5-((S)-1-(5-chlorothiophen-2-yl)-1-hydroxyethyl)tetrahydrofuran-3,4-diol] was tested. Which pIC50 [1] did it give?
Its pIC50 is 9.05.

And the pIC50 [2, 3]?
The pIC50 was 8.15.

How did the pIC50 [1] turn out when N/N=c1/nc[nH]c2c1ccn2[C@@H]1C[C@H]([C@H](O)c2ccc(Cl)cc2)[C@@H](O)[C@H]1O [Example 25-B, 7-[(1R,2S,3R,4R)-4-[(S)-(4-chlorophenyl)-hydroxy-methyl]-2,3-dihydroxy-cyclopentyl]-1H-pyrrolo[2,3-d]pyrimidin-4-one hydrazone hydrochloride] was run?
The pIC50 was 7.33.

What about the pIC50 [2, 3] of the same compound?
The pIC50 was roughly 5.52.

How did the pIC50 [1] turn out when N/N=c1/nc[nH]c2c1ccn2[C@@H]1C[C@H]([C@H](O)c2ccc(F)c(F)c2)[C@@H](O)[C@H]1O [Example 37-B, 7-[(1R,2S,3R,4R)-4-[(S)-(3,4-difluorophenyl)-hydroxy-methyl]-2,3-dihydroxy-cyclopentyl]-1H-pyrrolo[2,3-d]pyrimidin-4-one hydrazone hydrochloride] was run?
The pIC50 was 8.20.

What about the pIC50 [2, 3] of the same compound?
The pIC50 was 4.00.

What does the source list for O/N=c1/nc[nH]c2c1ccn2[C@@H]1C[C@H]([C@H](O)c2ccc(Cl)cc2)[C@@H](O)[C@H]1O [Example 50-B, 7-[(1R,2S,3R,4R)-4-[(S)-(4-chlorophenyl)-hydroxy-methyl]-2,3-dihydroxy-cyclopentyl]-1H-pyrrolo[2,3-d]pyrimidin-4-one oxime hydrochloride]?
pIC50 [1]: 7.93; pIC50 [2, 3]: ~6.22

What does the source list for CN(N)c1ncnc2c1ccn2[C@@H]1C[C@H](CCc2ccc3ccc(NCC4CC4)nc3c2)[C@@H](O)[C@H]1O [Example 79-B, (1S,2R,3S,5R)-3-(2-(2-((cyclopropylmethyl)amino)quinolin-7-yl)ethyl)-5-(4-(1-methylhydrazineyl)-7H-pyrrolo[2,3-d]pyrimidin-7-yl)cyclopentane-1,2-diol]?
pIC50 [1]: 8.09; pIC50 [2, 3]: 7.01

CCO/N=c1\nc[nH]c2c1ccn2[C@@H]1O[C@H]([C@](C)(O)c2ccc(Cl)cc2)[C@@H](O)[C@H]1O [Example 83, 7-((2R,3R,4S)-5-((R)-1-(4-chlorophenyl)-1-hydroxyethyl)-3,4-dihydroxytetrahydrofuran-2-yl)-1,7-dihydro-4H-pyrrolo[2,3-d]pyrimidin-4-one O-ethyl oxime] was tested. Which pIC50 ([2]; 72 h, Granta-519 cell line) did it give?
The pIC50 was 7.01.

With CNc1ccc2ccc(CC[C@H]3C[C@@H](n4ccc5/c(=N/OC)nc[nH]c54)[C@H](O)[C@@H]3O)cc2n1 [Example 84-B, 7-((1R,2S,3R,4S)-2,3-dihydroxy-4-(2-(2-(methylamino)quinolin-7-yl)ethyl)cyclopentyl)-1,7-dihydro-4H-pyrrolo[2,3-d]pyrimidin-4-one O-methyl oxime] as the compound, how does the pIC50 [1] read?
Its pIC50 is 8.57.

And the pIC50 [2, 3]?
Its pIC50 is 7.80.

How did the pIC50 [1] turn out when CO/N=c1\nc[nH]c2c1ccn2[C@@H]1C[C@H](CCc2ccc3ccc(N)nc3c2)[C@@H](O)[C@H]1O [Example 85-B, 7-((1R,2S,3R,4S)-4-(2-(2-aminoquinolin-7-yl)ethyl)-2,3-dihydroxycyclopentyl)-1,7-dihydro-4H-pyrrolo[2,3-d]pyrimidin-4-one O-methyl oxime] was run?
The pIC50 was 9.19.

What about the pIC50 [2, 3] of the same compound?
The pIC50 was 9.05.

How did the pIC50 [1] turn out when CO/N=c1\nc[nH]c2c1ccn2[C@@H]1C[C@H](CCc2ccc3cc(Cl)c(N)nc3c2)[C@@H](O)[C@H]1O [Example 86-B, (Z)-7-((1R,2S,3R,4S)-4-(2-(2-amino-3-chloroquinolin-7-yl)ethyl)-2,3-dihydroxycyclopentyl)-3,7-dihydro-4H-pyrrolo[2,3-d]pyrimidin-4-one O-methyl oxime] was run?
The pIC50 was 9.70.

And the pIC50 [2, 3]?
The pIC50 was 8.52.

With O/N=c1\nc[nH]c2c1ccn2[C@@H]1C[C@H](CCc2ccc3ccc(NCC4CC4)nc3c2)[C@@H](O)[C@H]1O [Example 87-B, 7-((1R,2S,3R,4S)-4-(2-(2-((cyclopropylmethyl)amino)quinolin-7-yl)ethyl)-2,3-dihydroxycyclopentyl)-1,7-dihydro-4H-pyrrolo[2,3-d]pyrimidin-4-one oxime] as the compound, how does the pIC50 [1] read?
The pIC50 was 9.48.

And the pIC50 [2, 3]?
Its pIC50 is 8.77.

How did the pIC50 [1] turn out when CN/N=c1\nc[nH]c2c1ccn2[C@@H]1C[C@H](CCc2ccc3ccc(NCC4CC4)nc3c2)[C@@H](O)[C@H]1O [Example 91-B, (1S,2R,3S,5R)-3-(2-(2-((cyclopropylmethyl)amino)quinolin-7-yl)ethyl)-5-((Z)-4-(2-methylhydrazineylidene)-1,4-dihydro-7H-pyrrolo[2,3-d]pyrimidin-7-yl)cyclopentane-1,2-diol] was run?
The pIC50 was 8.49.

What about the pIC50 [2, 3] of the same compound?
The pIC50 was 7.33.

Which results are given for CO/N=c1\nc[nH]c2c1ccn2[C@@H]1C[C@H]([C@H](O)c2ccc(Cl)c(Cl)c2)[C@@H](O)[C@H]1O [Example 92-B, 7-((1R,2S,3R,4R)-4-((S)-(3,4-dichlorophenyl)(hydroxy)methyl)-2,3-dihydroxycyclopentyl)-1,7-dihydro-4H-pyrrolo[2,3-d]pyrimidin-4-one O-methyl oxime]?
pIC50 [1]: 7.70; pIC50 [2, 3]: 6.47

What does the source list for C[C@@](O)(c1ccc(Cl)c(Cl)c1)[C@H]1C[C@@H](n2ccc3/c(=N\O)nc[nH]c32)[C@H](O)[C@@H]1O [Example 94-B, 7-((1R,2S,3R,4S)-4-((S)-1-(3,4-dichlorophenyl)-1-hydroxyethyl)-2,3-dihydroxycyclopentyl)-1,7-dihydro-4H-pyrrolo[2,3-d]pyrimidin-4-one oxime]?
pIC50 [1]: 8.47; pIC50 [2, 3]: 7.28

How did the pIC50 ([2]; 72 h, Granta-519 cell line) turn out when CO/N=c1/nc[nH]c2c1ccn2[C@@H]1O[C@H]([C@](C)(O)c2ccc(Cl)c(F)c2)[C@@H](O)[C@H]1O [Example 96] was run?
Its pIC50 is 6.85.

— patent US11220524B2, “Selective inhibitors of protein arginine methyltransferase 5 (PRMT5)” (PRELUDE THERAPEUTICS, INCORPORATED, priority 2017, dated 2022)
